{"source": "patent US20130225483A1", "about": "“New Treatments of Hepatitis C Virus Infection” (priority 2010, published 2013)", "system": "HCV genotype 2 (GT2) and genotype 3 (GT3)", "experiment": "Phase II clinical study: proportion of patients HCV RNA negative by LOQ", "assay_type": "in vivo", "conditions": "monotherapy arm (600 mg BID 1 week, then 1000 mg QD), 25 IU/mL", "description": "The efficacy of the therapy regimen may be monitored using standard protocols. Treatment may be followed by determinations of HCV in serum and measurement of serum ALT levels. For example, the patients may be assessed for the presence of HCV RNA in their plasma. HCV RNA (IU/mL) can be measured at regular intervals during the treatment, e.g., at Day 1 (pre-dose and 4, 8, and 12 hours post-dose) and pre-dose at Day 2, Day 3, Day 8, Day 15, Day 29, and at Week 12, Week 24, Week 36, Week 48, Week 72 (when applicable), and at follow up. In addition, the HCV strains in the patient can be sequenced and assessed for identification of mutations selecting for resistance.\nAs used herein, LOD means limit of detection (serum HCV RNA is less than 10 IU/mL) and LOQ means limit of quantification (serum HCV RNA is less than 25 IU/mL). HCV RNA levels can be measured using commercially available methods. […]"}
{"smiles": "C/C=C/C[C@@H](C)[C@@H](O)[C@H]1C(=O)N[C@@H](CC)C(=O)N(C)[C@H](C)C(=O)N(CC)[C@@H](C(C)C)C(=O)N[C@@H](C(C)C)C(=O)N(C)[C@@H](CC(C)C)C(=O)N[C@@H](C)C(=O)N[C@H](C)C(=O)N(C)[C@@H](CC(C)C)C(=O)N(C)[C@@H](CC(C)C)C(=O)N(C)[C@@H](C(C)C)C(=O)N1C", "note": "[alisporivir, Alisporivir]", "values": [{"measurement": "patients achieved HCV RNA negative results (fraction in words)", "result": "one third"}]}
